Key:
P2X7 = target: T1, P2X7 (Homo sapiens, UniProt Q99572); test: Plate-based flow cytometric YO-PRO-1 dye uptake compound screen in RPMI8226 cells; format: cell-based; set-up: endogenous in cells; host or cells: RPMI8226 cells; details: RPMI8226 cells, plate-based screen
T1 sequence (Q99572 1-595): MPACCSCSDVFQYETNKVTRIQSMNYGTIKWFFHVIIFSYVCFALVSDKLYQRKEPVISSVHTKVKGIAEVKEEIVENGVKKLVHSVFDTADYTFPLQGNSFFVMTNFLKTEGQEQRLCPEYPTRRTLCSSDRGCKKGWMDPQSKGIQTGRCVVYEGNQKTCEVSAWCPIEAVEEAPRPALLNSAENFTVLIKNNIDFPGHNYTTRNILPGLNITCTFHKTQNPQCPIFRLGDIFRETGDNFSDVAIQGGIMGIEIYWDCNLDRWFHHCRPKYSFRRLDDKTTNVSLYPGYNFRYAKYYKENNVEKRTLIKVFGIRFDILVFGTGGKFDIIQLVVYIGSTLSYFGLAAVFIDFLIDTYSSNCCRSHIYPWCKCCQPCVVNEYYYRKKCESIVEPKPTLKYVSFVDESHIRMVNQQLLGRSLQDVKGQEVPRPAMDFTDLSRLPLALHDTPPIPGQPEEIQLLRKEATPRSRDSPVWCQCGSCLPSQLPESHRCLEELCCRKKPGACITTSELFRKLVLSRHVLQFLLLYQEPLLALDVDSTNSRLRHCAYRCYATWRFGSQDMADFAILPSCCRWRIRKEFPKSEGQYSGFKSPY
Method: RPMI8226 cells were washed thrice with low-divalent medium (LDM) (145 mM NaCl, 2 mM KCl, 0.2 mM CaCl2, 13 mM D-glucose and 10 mM HEPES, pH 7.5) and 1 × 10^5 cells were added to each well of a 96-well flat-bottomed plate. Amiloride derivatives, at 10 μM (final concentration 5 μM) or vehicle (DMSO) were added, and plates pre-incubated (37 °C, 15 min). […] Wells were washed twice with LDM (300× g, 5 min) and cells were resuspended in LDM. Data was acquired with an Attune NxT Flow Cytometer an Autosampler (Thermo Fisher Scientific). Mean fluorescent intensity (MFI) of YO-PRO-1^+ uptake was determined using FlowJo.

hP2X4 = target: T2, hP2X4 (Homo sapiens, UniProt Q99571); test: Fura-2AM Ca2+ response assay in HEK-hP2X4 cells; format: cell-based
T2 construct: expressed in transfected cells; host or cells: HEK293 cells, transient transfection
T2 sequence (Q99571 1-388): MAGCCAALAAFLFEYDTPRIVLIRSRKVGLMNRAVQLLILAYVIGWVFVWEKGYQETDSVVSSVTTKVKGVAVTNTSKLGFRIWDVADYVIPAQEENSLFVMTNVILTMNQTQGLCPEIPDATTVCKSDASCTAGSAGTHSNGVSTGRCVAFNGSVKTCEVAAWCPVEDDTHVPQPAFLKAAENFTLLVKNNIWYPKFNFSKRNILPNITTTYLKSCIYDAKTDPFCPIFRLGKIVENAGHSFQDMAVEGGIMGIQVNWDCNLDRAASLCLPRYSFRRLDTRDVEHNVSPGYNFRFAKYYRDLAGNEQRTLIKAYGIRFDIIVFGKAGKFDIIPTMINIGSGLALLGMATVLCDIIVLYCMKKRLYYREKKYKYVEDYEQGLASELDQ
Method: HEK293 cells were plated at 3.5 × 10^5 cells/well in 2 mL of complete DMEM/F12 medium and incubated (37 °C, 95% air/5% CO2, overnight). Cells were transfected with mP2X7-GFP (HEK-mP2X7), cP2X7-GFP (HEK-cP2X7) or hP2X4-EmGFP (HEK-hP2X4) plasmids, or mock transfected with an equivalent volume of sterile Milli-Q water (Merck Millipore, Burlington, NJ, USA), using Lipofectamine 3000 according to the manufacturer’s instructions. Cells were used for assays 48 h post-transfection. To determine transfection efficiency, cells were washed twice with D-PBS and data collected with an LSR Fortessa X-20 flow cytometer (BD Biosciences). The proportion of GFP positive cells was determined using FlowJo software v8.7.1 (BD Biosciences).
Ca^2+ response assays were conducted as described. […] Fura-2 fluorescence at 510 nm was measured every 5 s using a FlexStation 3 (Molecular Devices, San Jose, CA, USA). […] Relative changes in intracellular Ca^2+ were calculated using the ratio of Fura-2AM fluorescence at 510 nm following excitation at 340 nm and 380 nm (F340nm/380nm). […] To determine relative P2X-mediated Ca^2+ responses, the area under the curve from 100 to 180 s was calculated with GraphPad Prism. To determine P2Y-mediated Ca^2+ responses the area under the curve from 30 to 100 s was calculated. In both cases, ATP-induced responses were calculated by subtracting the corresponding basal response. […]

NHE1 = system: NHE1; set-up: method as in PMID 33804289; details: cited from earlier work
[1] = system: hP2X7-mediated IL-1β release; test: Whole blood IL-1β release assay; format: cell-based; details: 30 μM compound, 6 mM ATP, LPS-primed human whole blood
Method: Whole blood IL-1β release assays were conducted as described. Briefly, whole human blood was mixed with an equal volume of serum-free RPMI-1640 medium containing LPS (200 ng/mL), added to a flat-bottom 96-well plate and incubated (37 °C, 95% air/5% CO2, 105 min). Compounds (30 μM) or vehicle (DMSO) were added to respective wells and incubated (37 °C, 95% air/5% CO2, 15 min). […] Plates were centrifuged (700× g, 10 min) with the resulting supernatants collected and stored at −80 °C. hIL-1β concentrations were determined using a Human IL-1β ELISA (Thermo Fisher Scientific) according to the manufacturer’s instructions. Samples above the detection limit (7500 pg/mL) were set at 7500 pg/mL for statistical analysis.

SMILES | EC50 (P2X7) | inhibition at 100 µM (hP2X4) | IC50 (hP2X4; read-out: IC50, hP2X4-mediated Ca2+ flux) | inhibition of NHE1 (NHE1) | reduction of ATP-induced IL-1β compared to vehicle control [1]
Nc1ncnc2c1ncn2[C@@H]1O[C@H](COP(=O)(O)OP(=O)(O)OP(=O)(O)O)[C@@H](O)[C@H]1O [ATP, adenosine 5′-triphosphate] | ~250 µM | – | – | – | –
N=C(N)NC(=O)c1nc(-c2cc3cnccc3o2)c(N2CCCCCC2)nc1N [6-FPHMA, 6-furopyridine-substituted 5-(N,N-hexamethylene) amiloride] | – | 100% | 3.95 ± 0.19 µM | inhibit | 56 ± 15%

— publication PMC9496321, “6-Furopyridine Hexamethylene Amiloride Is a Non-Selective P2X7 Receptor Antagonist” (Biomolecules, 2022)
